Measured values published in publication PMC11186346, “Conformational flexibility driving charge-selective substrate translocation across a bacterial transporter” (Chemical Science, 2024).
Where two headings read alike, the source gives them in different places.

How the values were obtained:
native CymA = target: T1, native CymA (Klebsiella oxytoca, UniProt Q48391); experiment: single-channel electrical recording, planar lipid bilayer; type: biochemical; details: +50 mV
T1 construct: full-length mature pore, residues 1-324, purified as described in earlier work, reconstituted in DPhPC planar lipid bilayers; monomeric beta-barrel
T1 sequence (Q48391 23-346): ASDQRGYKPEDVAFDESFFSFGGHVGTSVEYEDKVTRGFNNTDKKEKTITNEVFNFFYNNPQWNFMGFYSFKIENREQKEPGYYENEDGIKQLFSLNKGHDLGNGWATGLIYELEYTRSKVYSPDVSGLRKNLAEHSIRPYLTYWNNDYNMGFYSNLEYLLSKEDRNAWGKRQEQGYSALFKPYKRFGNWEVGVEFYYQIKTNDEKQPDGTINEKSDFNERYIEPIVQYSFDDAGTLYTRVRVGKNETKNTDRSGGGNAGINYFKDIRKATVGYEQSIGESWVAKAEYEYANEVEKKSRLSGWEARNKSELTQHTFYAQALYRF

truncated CymA (ΔN15) = truncated CymA (ΔN15) (Klebsiella oxytoca, UniProt Q48391); details: +50 mV
[1] = pH 8.0, 1 M KCl, 10 mM HEPES, trans side, mean dwell time of blockage (koff = 1/τoff)
[2] = pH 6.0, mean dwell time of blockage

Structure (SMILES)	τoff (native CymA; [1]) [ms]	τoff (truncated CymA (ΔN15); [1]) [ms]	τoff (native CymA; [2]) [ms]	τoff (truncated CymA (ΔN15); [2]) [ms]
NC[C@H]1O[C@@H]2O[C@H]3[C@H](O)[C@@H](O)[C@@H](O[C@H]4[C@H](O)[C@@H](O)[C@@H](O[C@H]5[C@H](O)[C@@H](O)[C@@H](O[C@H]6[C@H](O)[C@@H](O)[C@@H](O[C@H]7[C@H](O)[C@@H](O)[C@@H](O[C@H]1[C@H](O)[C@H]2O)O[C@@H]7CN)O[C@@H]6CN)O[C@@H]5CN)O[C@@H]4CN)O[C@@H]3CN [am6αCD]	0.55 ± 0.06	0.32 ± 0.04	–	–
OC[C@H]1O[C@@H]2O[C@H]3[C@H](O)[C@@H](O)[C@@H](O[C@H]4[C@H](O)[C@@H](O)[C@@H](O[C@H]5[C@H](O)[C@@H](O)[C@@H](O[C@H]6[C@H](O)[C@@H](O)[C@@H](O[C@H]7[C@H](O)[C@@H](O)[C@@H](O[C@H]1[C@H](O)[C@H]2O)O[C@@H]7CO)O[C@@H]6CO)O[C@@H]5CO)O[C@@H]4CO)O[C@@H]3CO [αCD]	–	–	0.620 ± 0.05	0.4500 ± 0.04
